Peptide text beside a SMILES is read from it.
Assays:
[1] = tested on: ACP T-cell hybridomas; experiment: T-cell hybridoma reactivity with nonamers spanning PI-1; type: cell-based, mouse; conditions: eight ACP T-cell hybridomas tested; all negative
[2] = biological target: I-A^k (Mus musculus, UniProt P01910+P06343); experiment: Peptide-binding assay on soluble I-A^k
[3] = biological target: T1, I-A^g7 (Mus musculus, UniProt P04228+Q31135); type: binding
T1 sequence (P04228 24-256): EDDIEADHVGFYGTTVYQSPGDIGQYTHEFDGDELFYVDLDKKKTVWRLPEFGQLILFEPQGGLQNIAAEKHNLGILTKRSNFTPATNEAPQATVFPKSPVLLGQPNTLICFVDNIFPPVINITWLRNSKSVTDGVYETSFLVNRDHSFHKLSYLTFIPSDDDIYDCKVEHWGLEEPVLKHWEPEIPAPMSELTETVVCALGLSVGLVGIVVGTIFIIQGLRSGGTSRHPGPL
T1 sequence (Q31135 1-263): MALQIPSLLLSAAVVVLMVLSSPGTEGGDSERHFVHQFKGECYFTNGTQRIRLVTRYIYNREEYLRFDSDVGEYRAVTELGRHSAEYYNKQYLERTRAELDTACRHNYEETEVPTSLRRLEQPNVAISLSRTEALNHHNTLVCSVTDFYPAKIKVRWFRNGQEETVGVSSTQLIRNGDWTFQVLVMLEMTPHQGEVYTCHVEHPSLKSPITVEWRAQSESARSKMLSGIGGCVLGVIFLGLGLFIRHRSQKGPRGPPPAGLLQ

| Molecule | T-cells reactive with nonamer (of T-cells tested) [1] | IC50 [2] [µM] | IC50 [3] [µM] |
| --- | --- | --- | --- |
| LQTLALEVA | 0 of 8 |  |  |
| TLALEVARQ | 0 of 8 |  |  |
| CC(C)C[C@H](NC(=O)[C@H](C)NC(=O)[C@H](CC(C)C)NC(=O)[C@@H](NC(=O)[C@H](CCC(N)=O)NC(=O)[C@H](CC(C)C)NC(=O)[C@H](CC(=O)O)NC(=O)CNC(=O)[C@@H]1CCCN1C(=O)[C@@H](N)CO)[C@@H](C)O)C(=O)N[C@@H](CCC(=O)O)C(=O)N[C@H](C(=O)N[C@@H](C)C(=O)N[C@@H](CCCNC(=N)N)C(=O)N[C@@H](CCC(N)=O)C(=O)N[C@@H](CCCCN)C(=O)N[C@@H](CCCNC(=N)N)C(=O)NCC(=O)O)C(C)C [PI-1(47–64)] (H-SPGDLQTLALEVARQKRG-OH) |  | 4.8 | 98.9 |
| QTLALEVAR | 0 of 8 |  |  |
| CC(C)C[C@H](NC(=O)[C@H](C)NC(=O)[C@H](CC(C)C)NC(=O)[C@@H](NC(=O)[C@H](CCC(N)=O)NC(=O)[C@H](CC(C)C)NC(=O)[C@H](CC(=O)O)NC(=O)CN)[C@@H](C)O)C(=O)N[C@@H](CCC(=O)O)C(=O)N[C@H](C(=O)N[C@@H](C)C(=O)N[C@@H](CCCNC(=N)N)C(=O)N[C@@H](CCC(N)=O)C(=O)O)C(C)C [PI-1(49–61)] (H-GDLQTLALEVARQ-OH) |  |  | 20 |
| CC(C)[C@H](NC(=O)[C@H](CCCCN)NC(=O)[C@H](CCCCN)NC(=O)CN)C(=O)N[C@@H](C)C(=O)N[C@H](C(=O)N[C@H](C(=O)N[C@H](C(=O)N[C@@H](Cc1c[nH]cn1)C(=O)N[C@@H](C)C(=O)NCC(=O)N[C@@H](Cc1ccc(O)cc1)C(=O)NCC(=O)O)C(C)C)[C@@H](C)O)[C@@H](C)O [MIME, reference compound] (H-GKKVATTVHAGYG-OH) |  |  | 1 |
| CC(C)C[C@H](NC(=O)[C@H](C)NC(=O)[C@H](CC(C)C)NC(=O)[C@@H](NC(=O)[C@H](CCC(N)=O)NC(=O)[C@H](CC(C)C)NC(=O)[C@H](CC(=O)O)NC(=O)CNC(=O)[C@H](C)NC(=O)CN)[C@@H](C)O)C(=O)N[C@@H](CCC(=O)O)C(=O)N[C@H](C(=O)N[C@@H](C)C(=O)N[C@@H](CCC(N)=O)C(=O)N[C@@H](CCC(N)=O)C(=O)N[C@@H](CCCCN)C(=O)N[C@@H](CCCNC(=N)N)C(=O)NCC(=O)O)C(C)C [PI-2(49–66)] (H-GAGDLQTLALEVAQQKRG-OH) |  | 2.1 | 136 |

— publication PMC2453633 (Diabetes, 2008)
